According to PubChem BioAssay AID1850 (Southern Research Specialized Biocontainment Screening …, 2009):
pIC50: −log10 of the molar value. “And” between values parts separate entries of the source, which are not always exact repeats. Equal values may be shown once.

tested on: Salmonella Typhi PhoP-promoter GFP reporter, fluorescence, 4 h; test: PhoP regulon inhibitors, Salmonella typhi PhoP promoter GFP reporter, confirmatory (AID 1850)

Row | SMILES | pIC50
1 | C=CC1=C(C(=O)O)N2C(=O)[C@@H](NC(=O)/C(=N\O)c3csc(N)n3)[C@H]2SC1 (stereo in doubt) | 4.72
2 | NC(N)=N/N=C/c1ccc(OCc2ccccc2Cl)cc1 | 4.51
3 | COc1c(N2CCN(C(=S)NCc3ccccc3)C(C)C2)c(F)cc2c(=O)c(C(=O)O)cn(C3CC3)c12 (stereo unspecified) | 4.44
4 | CC(C)CCC(CCNCc1ccccn1)c1ccc(Cl)cc1 (stereo unspecified) | 4.18
5 | O=C(Nc1c2ccccc2nc2ccccc12)C(Cl)(Cl)Cl | 4.20
6 | CCN1/C(=C/C=C/C=C/c2sc3ccccc3[n+]2CC)Sc2ccccc21 | 4.88
7 | O=C1C2=C(Nc3ccccc3SC2c2ccco2)c2ccccc21 (stereo unspecified) | 4.91
8 | Cn1c(SCC(=O)N/N=C/c2ccc([N+](=O)[O-])s2)nnc1-c1ccc(Cl)cc1 | 4.45
9 | CN1CCN(CCCN2c3ccccc3Sc3ccc(Cl)cc32)CC1 | 4.25 and 4.46
10 | CCCCCCCCCCOC(=O)Cn1c(COc2ccccc2C)[n+](C)c2ccccc21 | 4.88
11 | CC(Nc1nc(N2CCCC2)nc2ccccc12)c1ccccc1 (stereo unspecified) | 4.16
12 | Cc1c(Cl)cccc1Nc1nc(NCCO)c2ccccc2n1 | 4.97
13 | N=c1n(CC(=O)c2ccc(Br)s2)c2ccccc2n1Cc1ccccc1 | 4.29
14 | NC1=NC[C@H](Cc2ccc(O)cc2)N1CCCCC1CCCCC1 | 4.75
15 | Cc1ccc(C(=O)NNC(=S)NC(=O)COc2ccccc2)cc1 | 3.94
16 | Nc1nc(Nc2ccc(Cl)cc2)nc2ccccc12 | 4.82
17 | O=C(N/N=C/c1ccc([N+](=O)[O-])o1)c1ccc(O)cc1 | 4.70
18 | Cc1ccc2c(c1)c1c(n2CC(O)CN2CCC(C)CC2)CCCC1 (stereo unspecified) | 4.11
19 | CCn1cc(C(=O)NCC(C)C)c(=O)c2cc(F)c(N3CCN(C)CC3)cc21 | 4.83
20 | Oc1ccccc1C(Nc1nccs1)c1ccc2cccnc2c1O (stereo unspecified) | 4.68
21 | CCOC(=O)c1ccccc1-n1c(C)cc(C2N=C(N)Nc3nc4ccccc4n32)c1C (stereo unspecified) | 4.44

Row | SMILES | pIC50
22 | O=C(N/N=C\c1cccc([N+](=O)[O-])c1O)C1COc2ccccc2O1 (stereo unspecified) | 4.56
23 | O=c1[nH]c(=S)ccn1C1OC(CO)C(O)C1O (stereo unspecified) | 4.54
24 | O=c1cc(-c2ccc(O)cc2)oc2c(O)c(O)c(O)c(O)c12 | 4.45
25 | c1ccc(Nc2nc(NCc3ccco3)c3ccccc3n2)cc1 | 5.22
26 | Cc1ccc(C)c(NC(=O)c2ccccc2O)c1 | 4.12
27 | CCN1c2ccccc2NC2N=C(OC)C(c3ccccc3)C21 (stereo unspecified) | 4.10
28 | S=C(NCc1ccc(Cl)cc1)Nc1ccncc1 | 4.72
29 | CN(C)CCCN1c2ccccc2CCc2ccc(Cl)cc21 | 3.99
30 | CC(C)(c1ccccc1)c1ccc(OCCCNCCO)cc1 | 4.14
31 | COc1ccc(Nc2cc(C)c3c(O)cccc3n2)cc1 | 4.97
32 | O=C(Nc1cccc(C2=NCCN2)c1)Nc1cccc(C2=NCCN2)c1 | 4.14
33 | Fc1cccc(Nc2c3c(nc4ccccc24)CCC3)c1 | 4.26
34 | O=C(N/N=C\C=C\c1ccc([N+](=O)[O-])o1)c1cccs1 | 4.73
35 | Cc1ccc(C)c(Nc2cc(C)nc3ccccc23)c1 | 4.29
36 | c1ccc(CN2CCC(Nc3nc(-c4cccs4)nc4ccccc34)CC2)cc1 | 4.67
37 | CCc1ccc2c(c1)Sc1ccccc1CC2N1CCN(C)CC1 (stereo unspecified) | 4.39
38 | COCCCNC(=S)NNC(=O)c1ccccn1 | 4.43
39 | CC[n+]1c(/C=C/C=C/c2ccc(N(C)C)cc2)sc2ccccc21 | 4.41
40 | CNCc1c(OCc2ccccc2F)ccc2ccccc12 | 4.10
41 | C#CCOCCOCCOCCNc1nc(N2CCN(C(=O)CCCCCCCCCCNC(=O)[C@@H](CCSC)n3cc(CCO)nn3)CC2)nc(N2CCN(C(=O)CCCCCCCCCCNC(=O)[C@H]([C@@H](C)CC)n3cc(CCCCCN)nn3)CC2)n1 | 3.92
42 | COc1ccc(C2NCCc3c2[nH]c2ccccc32)cc1COc1ccc(F)cc1 (stereo unspecified) | 4.41

Row | SMILES | pIC50
43 | O=C(Nc1ccc(Cl)cc1)Nc1ccc2c(c1)N1CCN=C1S2 | 4.16
44 | O=C(Nc1nc(-c2ccccn2)cs1)c1ccc(Cl)s1 | 4.48
45 | CS(=O)(=O)c1ccc([C@@H](O)[C@@H](CF)NC(=O)C(Cl)Cl)cc1 | 5.28
46 | CCOC(=O)N1CCN(CCC(=O)c2ccc(Br)cc2)CC1 | 4.02
47 | CCN1CCCC1CNC(=O)C1CCN(Cc2nc(-c3cccc(Br)c3)oc2C)CC1 (stereo unspecified) | 3.90
48 | C#CCOCCOCCOCCNc1nc(N2CCN(C(=O)CCCCCCCCCCNC(=O)[C@H](CCCCN)n3cc(C[C@@H](C)CC)nn3)CC2)nc(N2CCN(C(=O)CCCCCCCCCCNC(=O)[C@H](CCCN=C(N)N)n3cc(C[C@@H](C)CC)nn3)CC2)n1 | 4.48
49 | O=C(Nc1c(Cl)ccc2nsnc12)c1ccc([N+](=O)[O-])o1 | 4.04
50 | CN(Cc1ccccc1)CC(O)COc1ccc(CNCc2ccc(Cl)s2)cc1 (stereo unspecified) | 3.91
51 | CCn1nnc(NC(=O)c2ccc([N+](=O)[O-])o2)n1 | 4.28
52 | O/N=C/C1=C(Cl)c2ccccc2CC1 | 3.90
53 | Oc1c(I)cc(Cl)c2cccnc12 | 5.03
54 | COc1cc(/C=C/[N+](=O)[O-])ccc1O | 3.99
55 | Cc1ccc(NC(=O)c2ccccc2)s1 | 4.12
56 | O=C(CCN1CCN(c2ccccc2)CC1)N/N=C/c1ccc([N+](=O)[O-])o1 | 3.86
57 | O=C(CC(=O)c1c(F)cccc1Cl)c1ccccc1O | 4.29
58 | Nc1nc2ccccc2n1CCOc1ccccc1Cl | 4.13
59 | Cc1ccc(-c2c[n+](CC(=O)Nc3nc(-c4ccccc4)cs3)c3n2CCC3)cc1 | 4.66
60 | COc1cccc(Nc2cc(C)nc3ccccc23)c1 | 4.16
61 | Nc1[nH]ncc1-c1ccccc1 | 4.16
62 | NC(N)=N/N=C/c1ccc(OCc2ccc(Cl)cc2)cc1 | 4.45
63 | O=C(CN1CC(c2ccccc2)CC1=O)N/N=C/c1cc(Br)ccc1O (stereo unspecified) | 4.18

Row | SMILES | pIC50
64 | O=[N+]([O-])c1cccc2c(N3CCCC3)ccnc12 | 4.57
65 | Cc1ccc2c(c1)sc(-c1ccc(N(C)C)cc1)[n+]2C | 4.62
66 | CCCCC(CC)CN=C(N)NC(N)=NCCCCCCN=C(N)NC(N)=NCC(CC)CCCC (stereo unspecified) | 5.56
67 | Brc1ccc2c(c1)C(OC1CN3CCC1CC3)c1ccccc1CS2 (stereo unspecified) | 4.42
68 | Nc1nc2ccccc2n1Cc1ccc(Cl)c(Cl)c1 | 4.10
69 | O=C(Oc1c(Cl)cc(Cl)c2cccnc12)c1ccco1 | 4.84
70 | OCCN1CCN(C2Cc3cc(Cl)ccc3Sc3ccc(Cl)cc32)CC1 (stereo unspecified) (tested in a mixture with another compound) | 4.46
71 | C#CCOCCOCCOCCNc1nc(N2CCN(C(=O)CCCCCCCCCCNC(=O)[C@H](CCCCN)n3cc(C)nn3)CC2)nc(N2CCN(C(=O)CCCCCCCCCCNC(=O)[C@H](CCCN=C(N)N)n3cc(C[C@@H](C)CC)nn3)CC2)n1 | 4.49
72 | COc1ccc2c(c1OC)C(=O)N(c1ccc(C)cc1)C2=O | 3.85
73 | CC(C)[C@@H]1CC[C@@H](C)C[C@H]1OC(=O)C[n+]1cc(-c2ccc(Cl)cc2)n2c1CCCCC2 | 4.17
74 | Cc1ccc(Nc2c3c(nc4ccccc24)CCC3)cc1 | 4.72
75 | Cc1ccc(-c2csc(N=C(N)N)n2)c(C)c1 | 4.30
76 | CN(C)CCNC(=O)c1ccc(COc2ccc(Cl)cc2Cl)cc1 | 3.90
77 | O=c1c2ccccc2[nH]c2ccc(F)cc12 | 4.12
78 | OC(CNCCc1ccccc1)COc1ccc(OCC(O)CNCCc2ccccc2)cc1 (stereo unspecified) | 4.45
79 | CCc1ccc(NC(=O)C[n+]2cc(-c3ccc(C)cc3)n3c2CCC3)cc1 | 4.40
80 | c1ccc2c(c1)C(=NC1CCCCC1)NC2=NC1CCCCC1 | 4.18
81 | CCC(C)NC(=O)c1cn(CC)c2cc(N3CCN(C)CC3)c(F)cc2c1=O (stereo unspecified) | 4.68
